Measured values published in US20060276464A1, “Diarylsulfone sulfonamides and use thereof” (Wyeth, priority 2005, published 2006).
Read-outs that look alike come from different tables or passages of the source.

Target: T1, SFRP-1 (Homo sapiens, UniProt Q8N474)
T1 sequence (Q8N474 32-314): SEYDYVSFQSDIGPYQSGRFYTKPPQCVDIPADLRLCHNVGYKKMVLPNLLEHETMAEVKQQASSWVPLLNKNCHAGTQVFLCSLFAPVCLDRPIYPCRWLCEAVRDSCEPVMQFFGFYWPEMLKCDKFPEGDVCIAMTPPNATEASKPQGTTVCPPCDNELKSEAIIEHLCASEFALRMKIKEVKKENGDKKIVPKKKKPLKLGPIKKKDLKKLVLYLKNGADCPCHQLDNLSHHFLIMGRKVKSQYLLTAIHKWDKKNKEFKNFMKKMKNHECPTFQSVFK
Assay: Cell-based assay for in vitro measurement of SFRP-1/SARP2 antagonist activity (U2OS cells co-transfected with 16x TCF-tk-Luciferase reporter, Wnt and hSFRP-1);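 also: U2OS cells co-transfected with a TCF-tk luciferase reporter, a Wnt vector, hSFRP-1 or empty vector and CMV-βgal, luciferase luminescence read in cell lysates alongside βgal activity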

[1] = U2OS, read-out: Fold Induction with SFRP-1, Conc 15 μM, with SFRP-1, fold induction over SFRP-1 control, single dose
[2] = U2OS, read-out: Fold Induction without SFRP-1, Conc 15 μM, without SFRP-1, single dose
[3] = U2OS, read-out: Fold Induction with SFRP-1, Conc 30 μM, with SFRP-1, fold induction over SFRP-1 control, single dose
[4] = U2OS, read-out: Fold Induction without SFRP-1, Conc 30 μM, without SFRP-1, single dose
[5] = U2OS, read-out: Fold Induction with SFRP-1, Conc 15 μM, single dose, luciferase reporter, fold induction over SFRP-1 control, cells with SFRP-1
[6] = U2OS, read-out: Fold Induction without SFRP-1, Conc 15 μM, single dose, luciferase reporter, cells without SFRP-1 (specificity control)
[7] = U2OS, read-out: Fold Induction with SFRP-1, Conc 20 μM, with SFRP-1, fold induction over SFRP-1 control, single dose
[8] = U2OS, read-out: Fold Induction without SFRP-1, Conc 20 μM, without SFRP-1, single dose

SMILES	fold induction at 15 µM [1]	fold induction at 15 µM [2]	other results
CCN(C)c1ccc(S(=O)(=O)c2ccc(C)c(S(=O)(=O)NCCCn3ccnc3)c2)cc1 [Example 304, 5-({4-[ethyl(methyl)amino]phenyl}sulfonyl)-N-[3-(1H-imidazol-1-yl)propyl]-2-methylbenzenesulfonamide]	1.7	1	–
Cc1ccc(S(=O)(=O)c2ccccc2)cc1S(=O)(=O)NCCc1ccccc1 [Example 1, 2-Methyl-N-(2-phenylethyl)-5-(phenylsulfonyl)benzene sulfonamide]	–	–	fold induction at 30 µM [3]: 1.5; fold induction at 30 µM [4]: 0.6
CC(C)(O)Cc1ccc(S(=O)(=O)c2ccccc2)cc1S(=O)(=O)NCCc1ccccc1 [Example 341, 2-(2-hydroxy-2-methylpropyl)-N-(2-phenylethyl)-5-(phenylsulfonyl)benzenesulfonamide]	1.5	1.1	–
CCN(CC)C1CCN(S(=O)(=O)c2cc(S(=O)(=O)c3ccccc3)ccc2Cl)C1 (centres unmarked) [Example 644, 1-{[2-chloro-5-(phenylsulfonyl)phenyl]sulfonyl}-N,N-diethylpyrrolidin-3-amine]	–	–	fold induction at 15 µM [5]: 1.3; fold induction at 15 µM [6]: 1.1
CC(C)c1ccc(S(=O)(=O)c2ccc(F)cc2)cc1S(=O)(=O)NCCO [Example 582, 5-[(4-fluorophenyl)sulfonyl]-N-(2-hydroxyethyl)-2-isopropylbenzenesulfonamide]	–	–	fold induction at 15 µM [5]: 2.6; fold induction at 15 µM [6]: 1
CCc1ccc(S(=O)(=O)c2ccccc2)cc1S(=O)(=O)N1CCN(CCCN2CCOCC2)CC1 [Example 289, 4-[3-(4-{[2-ethyl-5-(phenylsulfonyl)phenyl]sulfonyl}piperazin-1-yl)propyl]morpholine]	2.3	1.1	–
Cc1ccc(S(=O)(=O)c2ccccc2)cc1S(=O)(=O)NC1Cc2ccccc2C1 [Example 246, N-2,3-dihydro-1H-inden-2-yl-2-methyl-5-(phenylsulfonyl)benzenesulfonamide]	–	–	fold induction at 20 µM [7]: 2.2; fold induction at 20 µM [8]: 0.8
Cc1ccc(S(=O)(=O)c2ccccc2)cc1S(=O)(=O)NCCC(=O)NC(C)(C)C [Example 666, N-(tert-butyl)-N^3-{[2-methyl-5-(phenylsulfonyl)phenyl]sulfonyl}-β-alaninamide]	–	–	EC50: 27.2 µM; fold induction at 10 µM (U2OS, read-out: Fold Induction with SFRP-1, U2OS cells, single dose 10 μM, luciferase reporter, fold induction over SFRP-1 control): 1.5
CC(C)c1ccc(S(=O)(=O)c2ccc(F)cc2)cc1S(=O)(=O)NCCN1CCCCC1 [Example 527, 5-[(4-fluorophenyl)sulfonyl]-2-isopropyl-N-(2-piperidin-1-ylethyl)benzenesulfonamide]	–	–	fold induction at 15 µM [5]: 2.3; fold induction at 15 µM [6]: 1.2
CCc1ccc(S(=O)(=O)c2ccccc2)cc1S(=O)(=O)NCCCc1ccccc1 [Example 245, 2-ethyl-N-(3-phenylpropyl)-5-(phenylsulfonyl)benzenesulfonamide]	1.9	1.2	–
Cc1ccc(S(=O)(=O)c2ccccc2)cc1S(=O)(=O)NC1CCN(S(=O)(=O)c2cccc3c(N(C)C)cccc23)CC1 [Example 483, N-(1-{[5-(dimethylamino)-1-naphthyl]sulfonyl}piperidin-4-yl)-2-methyl-5-(phenylsulfonyl)benzenesulfonamide]	2.9	1	–
Cc1ccc(S(=O)(=O)c2ccc(F)cc2)cc1S(=O)(=O)NCCc1ccccc1Cl [Example 3, N-[2-(2-chlorophenyl)ethyl]-5-[(4-fluorophenyl)sulfonyl]-2-methylbenzenesulfonamide]	–	–	fold induction at 30 µM [3]: 1.1; fold induction at 30 µM [4]: 0.4
Cc1ccc(S(=O)(=O)c2ccccc2)cc1S(=O)(=O)NC1CCc2ccccc21 (centres unmarked) [Example 415, N-(2,3-dihydro-1H-inden-1-yl)-2-methyl-5-(phenylsulfonyl)benzenesulfonamide]	1.5	1.2	–
CC(C)c1ccc(S(=O)(=O)c2ccc(F)cc2)cc1S(=O)(=O)NC1CC1 [Example 521, N-cyclopropyl-5-[(4-fluorophenyl)sulfonyl]-2-isopropylbenzenesulfonamide]	–	–	fold induction at 15 µM [5]: 1.7; fold induction at 15 µM [6]: 1
Cc1ccc(S(=O)(=O)c2ccc(F)cc2)cc1S(=O)(=O)NC[C@@H](C)c1ccccc1 [Example 261, 5-[(4-fluorophenyl)sulfonyl]-2-methyl-N-[(2S)-2-phenylpropyl]benzenesulfonamide]	1.4	0.9	–
Cc1ccc(S(=O)(=O)c2cc(F)cc(F)c2)cc1S(=O)(=O)NCCc1ccccn1 [Example 417, 5-[(3,5-difluorophenyl)sulfonyl]-2-methyl-N-(2-pyridin-2-ylethyl)benzenesulfonamide]	1.8	1	–

SMILES	fold induction at 15 µM [1]	fold induction at 15 µM [2]	other results
CNc1ccc(S(=O)(=O)c2ccc(C(C)C)c(S(=O)(=O)NCCn3ccnc3)c2)cc1 [Example 451, N-[2-(1H-imidazol-1-yl)ethyl]-2-isopropyl-5-{[4-(methylamino)phenyl]sulfonyl)benzenesulfonamide]	3.7	1.1	–
CCOc1cc(CCNS(=O)(=O)c2cc(S(=O)(=O)c3ccccc3)ccc2CC)ccc1OC [Example 148, N-[2-(3-ethoxy-4-methoxyphenyl)ethyl]-2-ethyl-5-(phenylsulfonyl)benzenesulfonamide]	2.8	1.1	–
Cc1ccc(S(=O)(=O)c2ccc(F)cc2)cc1S(=O)(=O)NCCn1ccnc1 [Example 307, 5-[(4-fluorophenyl)sulfonyl]-N-[2-(1H-imidazol-1-yl)ethyl]-2-methylbenzenesulfonamide]	2.5	0.9	–
Cc1ccc(S(=O)(=O)c2ccccc2)cc1S(=O)(=O)NCC(C)(C)C [Example 396, N-(2,2-dimethylpropyl)-2-methyl-5-(phenylsulfonyl)benzenesulfonamide]	1.4	1	–
N#CCCNS(=O)(=O)c1cccc(S(=O)(=O)c2ccccc2)c1 [Example 183, N-(2-cyanoethyl)-3-(phenylsulfonyl)benzenesulfonamide]	–	–	fold induction at 30 µM [3]: 1.3; fold induction at 30 µM [4]: 1
Cc1ccc(S(=O)(=O)c2ccccc2)cc1S(=O)(=O)NC[C@H](C)c1ccccc1 [Example 248, 2-methyl-N-[(2R)-2-phenylpropyl]-5-(phenylsulfonyl)benzenesulfonamide]	–	–	fold induction at 20 µM [7]: 2.8; fold induction at 20 µM [8]: 0.9
Cc1cc(S(=O)(=O)c2ccccc2)cc(S(=O)(=O)NCCC2CCOCC2)c1C [Example 351, 2,3-dimethyl-5-(phenylsulfonyl)-N-[2-(tetrahydro-2H-pyran-4-yl)ethyl]benzenesulfonamide]	1.5	1.3	–
COC(=O)[C@@H](Cc1ccccc1)NS(=O)(=O)c1cc(S(=O)(=O)c2ccccc2)ccc1C [Example 365, methyl N-{[2-methyl-5-(phenylsulfonyl)phenyl]sulfonyl}-D-phenylalaninate]	1.3	1.1	–
O=S(=O)(c1ccccc1)c1ccc(Cl)c(S(=O)(=O)N2CCC(N3CCCC3)CC2)c1 [Example 635, 1-{[2-chloro-5-(phenylsulfonyl)phenyl]sulfonyl}-4-pyrrolidin-1-ylpiperidine]	–	–	fold induction at 15 µM [5]: 2; fold induction at 15 µM [6]: 1.7
CCc1ccc(S(=O)(=O)c2ccccc2)cc1S(=O)(=O)NCCc1ccc(S(N)(=O)=O)cc1 [Example 145, N-{2-[4-(aminosulfonyl)phenyl]ethyl}-2-ethyl-5-(phenylsulfonyl)benzenesulfonamide]	2.2	1.2	–
COc1ccc(CCNS(=O)(=O)c2cc(S(=O)(=O)c3ccccc3)ccc2OC)cc1OC [Example 153, N-[2-(3,4-dimethoxyphenyl)ethyl]-2-methoxy-5-(phenylsulfonyl)benzenesulfonamide]	1.5	1.1	–
COCCCNS(=O)(=O)c1cc(S(=O)(=O)c2ccccc2)ccc1C [Example 215, N-(3-methoxypropyl)-2-methyl-5-(phenylsulfonyl)benzenesulfonamide]	2.9	1	–
Cc1ccc(S(=O)(=O)c2ccccc2)cc1S(=O)(=O)NC1CC1 [Example 424, N-cyclopropyl-2-methyl-5-(phenylsulfonyl)benzenesulfonamide]	2.1	1.2	–
Cc1ccc(S(=O)(=O)c2ccccc2)cc1S(=O)(=O)NC(C)C(O)c1ccccc1 (stereo not drawn) [Example 390, trans-N-(2-hydroxy-1-methyl-2-phenylethyl)-2-methyl-5-(phenylsulfonyl)benzenesulfonamide]	–	–	Fold Induction with SFRP-1 (Conc 15 μM, with SFRP-1, fold induction over SFRP-1 control, single dose): 2.2 fold; Fold Induction without SFRP-1 (Conc 15 μM, without SFRP-1, single dose): 1.1 fold
Cc1c(S(=O)(=O)NCCCn2ccnc2)cccc1S(=O)(=O)c1ccccc1 [Example 493, N-[3-(1H-imidazol-1-yl)propyl]-2-methyl-3-(phenylsulfonyl)benzenesulfonamide]	–	–	fold induction at 15 µM [5]: 1; fold induction at 15 µM [6]: 1.1
